The record followed here is patent US20230143612A1 (Arbutus Biopharma Corporation, priority 2020, published 2023).

Sequence of PD-L1 His protein / PD-1 Fc protein (Q9NZQ7 19-238 limits assumed): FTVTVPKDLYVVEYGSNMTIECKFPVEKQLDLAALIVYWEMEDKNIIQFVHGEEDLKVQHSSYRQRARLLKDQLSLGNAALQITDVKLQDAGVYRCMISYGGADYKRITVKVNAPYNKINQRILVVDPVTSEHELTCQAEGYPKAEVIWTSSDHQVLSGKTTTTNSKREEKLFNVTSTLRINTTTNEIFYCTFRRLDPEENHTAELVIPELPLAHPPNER

The test has as its target PD-L1 His protein / PD-1 Fc protein (Homo sapiens, UniProt Q9NZQ7). The test can be described thus: HTRF Assay (PD-1/PD-L1 interaction). Type of test: binding. Conditions: PD-L1 His 6 nM, PD-1 Fc 6 nM. In short, it runs like this: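 Compounds tested from 20 μM down to 0.001 μM (3-fold) against 6 nM PD-L1 His and 6 nM PD-1 Fc, 15 min room temperature incubation. Detection after 1 h at room temperature with Tb cryptate anti-6HIS and XL665 anti-human IgG reagents (mixture at 0.35 nM and 6.7 nM), HTRF signal.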
A general note: TR-FRET usually uses a lanthanide donor and a delayed reading to cut background.
As to `O=C1CC[C@@H](CNCc2cnc3cc(-c4cccc(-c5cccc(-c6ccn7c(=O)c(CNC[C@@H]8CCC(=O)N8)cnc7c6)c5Cl)c4Cl)ccn3c2=O)N1` [Example 48, (S)-8,8′-(2,2′-Dichloro-[1,1′-biphenyl]-3,3′-diyl)bis(3-(((((S)-5-oxopyrrolidin-2-yl)methyl)amino)methyl)-4H-pyrido[1,2-a]pyrimidin-4-one)], the IC50 (commonly the concentration that gives 50% inhibition) is 7 nM.

As to `COc1nc(-c2cccc(-c3cccc(-c4ccn5c(=O)c(CNC[C@@H]6CCC(=O)N6)ccc5c4)c3C)c2Cl)cnc1CNC[C@@H]1CCC(=O)N1` [Example 49, 8-(2′-Chloro-3′-(6-methoxy-5-(((((S)-5-oxopyrrolidin-2-yl)methyl)amino)methyl)pyrazin-2-yl)-2-methyl-[1,1′-biphenyl]-3-yl)-3-(((((S)-5-oxopyrrolidin-2-yl)methyl)amino)methyl)-4H-quinolizin-4-one], the IC50 came to 6.3 nM.

Compound `Cc1c(-c2ccn3c(=O)c(CNC[C@@H]4CCC(=O)N4)cnc3c2)cccc1-c1cccc(-c2ccc(CNC[C@@H]3CCC(=O)N3)c(Cl)n2)c1Cl` [Example 50, 8-(2′-Chloro-3′-(6-chloro-5-(((((S)-5-oxopyrrolidin-2-yl)methyl)amino)methyl)pyridin-2-yl)-2-methyl-[1,1′-biphenyl]-3-yl)-3-(((((S)-5-oxopyrrolidin-2-yl)methyl)amino)methyl)-4H-pyrido[1,2-a]pyrimidin-4-one] came in with an IC50 of 8.1 nM.

The compound `COc1nc(-c2cccc(-c3cccc(-c4ccn5c(=O)c(CN(C)C[C@@H]6CCC(=O)N6)cnc5c4)c3C)c2Cl)ccc1CNC[C@@H]1CCC(=O)N1` [Example 54, 8-(2′-Chloro-3′-(6-methoxy-5-(((((S)-5-oxopyrrolidin-2-yl)methyl)amino)methyl)pyridin-2-yl)-2-methyl-[1,1′-biphenyl]-3-yl)-3-((methyl(((S)-5-oxopyrrolidin-2-yl)methyl)amino)methyl)-4H-pyrido[1,2-a]pyrimidin-4-one] gave a 50% inhibitory concentration (IC50) of 7 nM.

As to `COc1nc(-c2cccc(-c3cccc(-c4ccn5c(=O)c(CN(C)C[C@@H]6CCC(=O)N6)cnc5c4)c3C)c2Cl)ccc1CN1CC(O)C1` [Example 55, (S)-8-(2′-Chloro-3′-(5-((3-hydroxyazetidin-1-yl)methyl)-6-methoxypyridin-2-yl)-2-methyl-[1,1′-biphenyl]-3-yl)-3-((methyl((5-oxopyrrolidin-2-yl)methyl)amino)methyl)-4H-pyrido[1,2-a]pyrimidin-4-one], the half-maximal inhibitory concentration (IC50) came to 43 nM.

As to `Cc1c(-c2ccn3c(=O)c(CNC[C@@H]4CCC(=O)N4)cnc3c2)cccc1-c1cccc(-c2ccc(CNC[C@@H]3CCC(=O)N3)c(F)n2)c1Cl` [Example 57, 8-(2′-Chloro-3′-(6-fluoro-5-(((((S)-5-oxopyrrolidin-2-yl)methyl)amino)methyl)pyridin-2-yl)-2-methyl-[1,1′-biphenyl]-3-yl)-3-(((((S)-5-oxopyrrolidin-2-yl)methyl)amino)methyl)-4H-pyrido[1,2-a]pyrimidin-4-one], the IC50 turned out to be 3.1 nM.

`COc1nc(-c2cccc(-c3cccc(-c4cc(=O)n5cc(CNC[C@@H]6CCC(=O)N6)ccc5n4)c3Cl)c2Cl)cnc1CNC[C@@H]1CCC(=O)N1` [Example 58, 2-(2,2′-Dichloro-3′-(6-methoxy-5-(((((S)-5-oxopyrrolidin-2-yl)methyl)amino)methyl)pyrazin-2-yl)-[1,1′-biphenyl]-3-yl)-7-(((((S)-5-oxopyrrolidin-2-yl)methyl)amino)methyl)-4H-pyrido[1,2-a]pyrimidin-4-one] came in with an IC50 of 2.2 nM.

For the compound `COc1nc(-c2cccc(-c3cccc(-c4cc(=O)n5cc(CNC[C@@H]6CCC(=O)N6)ccc5n4)c3Cl)c2Cl)ccc1CNC[C@@H]1CCC(=O)N1` [Example 59, 2-(2,2′-Dichloro-3′-(6-methoxy-5-(((((S)-5-oxopyrrolidin-2-yl)methyl)amino)methyl)pyridin-2-yl)-[1,1′-biphenyl]-3-yl)-7-(((((S)-5-oxopyrrolidin-2-yl)methyl)amino)methyl)-4H-pyrido[1,2-a]pyrimidin-4-one], inhibition was half-maximal at 2.9 nM (IC50).

On to `O=C1CC[C@@H](CNCc2ccc3nc(-c4cccc(-c5cccc(-c6cc(=O)n7cc(CNC[C@@H]8CCC(=O)N8)ccc7n6)c5Cl)c4Cl)cc(=O)n3c2)N1` [Example 60, 2,2′-(2,2′-Dichloro-[1,1′-biphenyl]-3,3′-diyl)bis(7-(((((S)-5-oxopyrrolidin-2-yl)methyl)amino)methyl)-4H-pyrido[1,2-a]pyrimidin-4-one)], for which it took 460 nM to reach half-maximal inhibition (IC50).

The compound `Cc1c(-c2ccn3c(=O)c(CNC[C@@H]4CCC(=O)N4)cnc3c2)cccc1-c1cccc(-c2ccc(CNC[C@@H]3CCC(=O)N3)cn2)c1Cl` [Example 61, 8-(2′-Chloro-2-methyl-3′-(5-(((((S)-5-oxopyrrolidin-2-yl)methyl)amino)methyl)pyridin-2-yl)-[1,1′-biphenyl]-3-yl)-3-(((((S)-5-oxopyrrolidin-2-yl)methyl)amino)methyl)-4H-pyrido[1,2-a]pyrimidin-4-one] gave a concentration for half-maximal inhibition (IC50) of 16 nM.

As to `Cc1c(-c2ccn3c(=O)c(CNC4CNC(=O)C4)cnc3c2)cccc1-c1cccc(-c2ccc(CNC[C@@H]3CCC(=O)N3)c(F)n2)c1Cl` (stereo partly drawn) [Example 62, 8-(2′-Chloro-3′-(6-fluoro-5-(((((S)-5-oxopyrrolidin-2-yl)methyl)amino)methyl)pyridin-2-yl)-2-methyl-[1,1′-biphenyl]-3-yl)-3-(((5-oxopyrrolidin-3-yl)amino)methyl)-4H-pyrido[1,2-a]pyrimidin-4-one], half-maximal inhibition (IC50) was put at 19 nM.

`Cc1c(-c2ccn3c(=O)c(CNC[C@@H]4CCC(=O)N4)cnc3c2)cccc1-c1cccc(-c2ccc(CNC[C@@H]3CCC(=O)N3)c(N(C)C)n2)c1Cl` [Example 64, 8-(2′-Chloro-3′-(6-(dimethylamino)-5-(((((S)-5-oxopyrrolidin-2-yl)methyl)amino)methyl)pyridin-2-yl)-2-methyl-[1,1′-biphenyl]-3-yl)-3-(((((S)-5-oxopyrrolidin-2-yl)methyl)amino)methyl)-4H-pyrido[1,2-a]pyrimidin-4-one]: the IC50 was determined as 37 nM.

Consider `Cc1c(-c2ccn3c(=O)c(CNC[C@@H]4CCC(=O)N4)cnc3c2)cccc1-c1cccc(-c2ccc(CNC[C@@H]3CCC(=O)N3)cc2)c1Cl` [Example 65, 8-(2′-Chloro-2-methyl-4″-(((((S)-5-oxopyrrolidin-2-yl)methyl)amino)methyl)-[1,1′:3′,1″-terphenyl]-3-yl)-3-(((((S)-5-oxopyrrolidin-2-yl)methyl)amino)methyl)-4H-pyrido[1,2-a]pyrimidin-4-one], for which the half-maximal inhibitory concentration (IC50) came out at 5.6 nM.

In turn, `COc1cc(-c2cccc(-c3cccc(-c4ccn5c(=O)c(CNC[C@@H]6CCC(=O)N6)cnc5c4)c3C)c2Cl)ccc1CNC[C@@H]1CCC(=O)N1` [Example 66, 8-(2′-Chloro-3″-methoxy-2-methyl-4″-(((((S)-5-oxopyrrolidin-2-yl)methyl)amino)methyl)-[1,1′:3′,1″-terphenyl]-3-yl)-3-(((((S)-5-oxopyrrolidin-2-yl)methyl)amino)methyl)-4H-pyrido[1,2-a]pyrimidin-4-one] gave an IC50 of 5.2 nM.

`Cc1c(-c2ccn3c(=O)c(CNC[C@@H]4CCC(=O)N4)cnc3c2)cccc1-c1cccc(-c2ccc(CNC[C@@H]3CCC(=O)N3)c(Cl)c2)c1Cl` [Example 67, 8-(2′,3″-Dichloro-2-methyl-4″-(((((S)-5-oxopyrrolidin-2-yl)methyl)amino)methyl)-[1,1′:3′,1″-terphenyl]-3-yl)-3-(((((S)-5-oxopyrrolidin-2-yl)methyl)amino)methyl)-4H-pyrido[1,2-a]pyrimidin-4-one] came in with an IC50 of 3.5 nM.

`COc1nc(-c2cccc(-c3cccc(-c4ccn5c(=O)c(CNCCNC(C)=O)cnc5c4)c3Cl)c2Cl)ccc1CNCCNC(C)=O` [Example 69, N-(2-(((6-(3′-(3-(((2-Acetamidoethyl)amino)methyl)-4-oxo-4H-pyrido[1,2-a]pyrimidin-8-yl)-2,2′-dichloro-[1,1′-biphenyl]-3-yl)-2-methoxypyridin-3-yl)methyl)amino)ethyl)acetamide] registered an IC50 of 1.9 nM.

Compound `COc1nc(-c2cccc(-c3cccc(-c4ccn5c(=O)c(CN6CC7(CNC(=O)C7)C6)cnc5c4)c3Cl)c2Cl)ccc1CN1CC2(CNC(=O)C2)C1` [Example 70, 8-(2,2′-Dichloro-3′-(6-methoxy-5-((7-oxo-2,6-diazaspiro[3.4]octan-2-yl)methyl)pyridin-2-yl)-[1,1′-biphenyl]-3-yl)-3-((7-oxo-2,6-diazaspiro[3.4]octan-2-yl)methyl)-4H-pyrido[1,2-a]pyrimidin-4-one] displayed an IC50 of 7.1 nM.

With `COc1nc(-c2cccc(-c3cccc(-c4ccn5c(=O)c(CNC[C@@H]6CCC(=O)N6)cnc5c4)c3Cl)c2Cl)cnc1N1CC(N)C1` [Example 71, (S)-8-(3′-(5-(3-Aminoazetidin-1-yl)-6-methoxypyrazin-2-yl)-2,2′-dichloro-[1,1′-biphenyl]-3-yl)-3-((((5-oxopyrrolidin-2-yl)methyl)amino)methyl)-4H-pyrido[1,2-a]pyrimidin-4-one], the IC50 turned out to be 2 nM.

`CCOc1nc(-c2cccc(-c3cccc(-c4ccn5c(=O)c(CNC[C@@H]6CCC(=O)N6)cnc5c4)c3C)c2Cl)ccc1CNC[C@@H]1CCC(=O)N1` [Example 72, 8-(2′-Chloro-3′-(6-ethoxy-5-(((((S)-5-oxopyrrolidin-2-yl)methyl)amino)methyl)pyridin-2-yl)-2-methyl-[1,1′-biphenyl]-3-yl)-3-(((((S)-5-oxopyrrolidin-2-yl)methyl)amino)methyl)-4H-pyrido[1,2-a]pyrimidin-4-one] had an IC50 of 9.4 nM.

`CNc1nc(-c2cccc(-c3cccc(-c4ccn5c(=O)c(CNC[C@@H]6CCC(=O)N6)cnc5c4)c3C)c2Cl)ccc1CNC[C@@H]1CCC(=O)N1` [Example 73, 8-(2′-Chloro-2-methyl-3′-(6-(methylamino)-5-(((((S)-5-oxopyrrolidin-2-yl)methyl)amino)methyl)pyridin-2-yl)-[1,1′-biphenyl]-3-yl)-3-(((((S)-5-oxopyrrolidin-2-yl)methyl)amino)methyl)-4H-pyrido[1,2-a]pyrimidin-4-one] registered an IC50 of 6.3 nM.
